Experimental data: patent US20200390729A1, “OPHTHALMIC TOPICAL COMPOSITION COMPRISING DOBESILIC ACID FOR TREATING DISEASES OF THE POSTERIOR SEGMENT OF THE EYE” (LABORATORIOS SALVAT, S.A., priority 2017, published 2020)
Where two headings read alike, the source gives them in different places.

Tests used:
[1] = Ocular distribution of CDO in rats, single dose topical ocular vs. oral; format: in vivo, Sprague Dawley (SD) rat; set-up: key to CDO concentrations Retina / CDO concentrations Optic nerve: —: non-detectable
Method: In Sprague Dawley (SD) rat, weighing approximately 200 g, CDO was administered by topical ocular instillation (10 μl/eye) at 10 mg/ml (composition 2 of Example 1), at 100 mg/ml (composition 5 of Example 1) or by oral gavage at 50 mg/kg, at 200 mg/kg or at 750 mg/kg in aqueous solution (from compositions 1, 3 and 4, respectively, of Example 1). At 15, 60, 180 and 360 minutes post-administration, animals were euthanized and plasma and ocular tissues including sclera, cornea, retina, vitreous humour/lens and optic nerve were collected.
Bioanalysis of CDO was performed depending on the type of matrix. In the case of plasma, proteins were precipitated using methanol. In the case of tissues, samples were grinded in a Mini Bead Beater using zirconium beads and methanol/water (1:1) (v/v) as solvent. After centrifugation, samples were analyzed by UPLC-MS/MS.
Chromatographic separation was carried out using an Acquity CSH Fluoro Phenyl column (1.7 μm, 50×2.1 mm). Mobile phase consisted of a gradient using 0.1% formic acid in water and acetonitrile from 5% to 45% in 4.5 min at a flow rate of 0.6 ml/min.
With regard to the mass spectrometric detection, the electrospray ionization source worked to record negative ions. Multiple Reaction Monitoring (MRM) acquisition mode of the deprotonated molecular ions was performed. The transition monitored for CDO was m/z 189.0→80.1 with a cone voltage of 45 V and collision energy of 25 eV.

[2] = Ocular distribution of CDO following 28-day topical ocular repeated dose in diabetic rats; format: in vivo; conditions: rat, retina, day 29, 0.25 h after single instillation, read-out: CDO μg/g tissue Retina
Method: 28-day repeated dose study in the diabetic rats was performed to assess CDO levels in retina at the steady state. CDO compositions 2 and 5 of Example 1 were administered by topical ocular instillation (10 μl/eye) TID for 28 days. At day 29 CDO was instilled a single time and retinas were collected 15 minutes post-administration.
As described in Example 2.

[3] = system: diabetic rats induced by streptozotocin; assay: Retinal vascularity (Evans Blue staining) in diabetic retinopathy model induced by streptozotocin; format: in vivo, SD male rats; conditions: diabetic rats (group III), CDO 10 mg/ml topical 10 μl/eye TID 28 days
Method: Diabetes was induced in SD male rats by single intraperitoneal injection of streptozotocin (STZ) at 60 mg/kg body weight in citrate buffer (pH 4.5). Seven days after STZ administration, blood glucose was measured and the level of 250 mg/dl was considered the threshold value to consider diabetes induction. Ophthalmic treatment with CDO at 10 mg/ml (topical instillation of 10 μl/eye) was initiated once hyperglycemia was confirmed and continued for 28 days three times a day (TID). Rats were randomly divided in 3 groups: I. Control (non-diabetic), II. Diabetic rats with no treatment and III. Diabetic rats with CDO at 10 mg/ml.
At day 29 CDO was instilled a single time at 10 mg/ml in the group III, rats were euthanized and retinas were collected 15 minutes post-administration.
Retinal vascularity was observed by Evans Blue (EB) staining, based on the ability of EB to bind serum albumin immediately after intravenous injection. Thus Evans Blue 3% was injected through the tail vein at 1 ml/kg at 60 minutes before euthanasia at day 29. Eyeballs were fixed in paraformaldehyde 4%. Retinas were immediately after dissected and mounted in slides and observed by fluorescence microscopy.

[4] = rat, oral 50 mg/Kg = 10 mg, 0.25 h
[5] = rat, oral 50 mg/Kg = 10 mg, 1 h
[6] = rat, topical eye 10 mg/ml (eye drop of 10 μl) = 0.1 mg, 3 h

O=S(=O)(O)c1cc(O)ccc1O [CDO, Calcium dobesilate monohydrate]
concentration at 3 h ([1]; Sprague Dawley, sclera, rat, topical eye 100 mg/ml (eye drop of 10 μl) = 1 mg, 3 h, read-out: CDO concentrations Sclera): 220 ng/g | concentration at 0.25 h ([1]; Sprague Dawley, vitreous humour/lens, rat, topical eye 10 mg/ml (eye drop of 10 μl) = 0.1 mg, 0.25 h, read-out: CDO concentrations Vitreous humour/lens): 1480 ng/g | concentration at 1 h ([1]; Sprague Dawley, vitreous humour/lens, rat, topical eye 10 mg/ml (eye drop of 10 μl) = 0.1 mg, 1 h, read-out: CDO concentrations Vitreous humour/lens): 1680 ng/g | concentration at 3 h ([1]; Sprague Dawley, vitreous humour/lens, rat, topical eye 10 mg/ml (eye drop of 10 μl) = 0.1 mg, 3 h, read-out: CDO concentrations Vitreous humour/lens): 190 ng/g | concentration at 0.25 h ([1]; Sprague-Dawley, optic nerve, rat, topical eye 10 mg/ml (eye drop of 10 μl) = 0.1 mg, 0.25 h, read-out: CDO concentrations Optic nerve): 5300 ng/g | concentration at 1 h ([1]; Sprague-Dawley, optic nerve, rat, topical eye 10 mg/ml (eye drop of 10 μl) = 0.1 mg, 1 h, read-out: CDO concentrations Optic nerve): 850 ng/g | concentration at 6 h ([1]; Sprague-Dawley, optic nerve, rat, topical eye 10 mg/ml (eye drop of 10 μl) = 0.1 mg, 6 h, read-out: CDO concentrations Optic nerve): 250 ng/g | concentration at 0.25 h ([1]; Sprague-Dawley, optic nerve, rat, topical eye 100 mg/ml (eye drop of 10 μl) = 1 mg, 0.25 h, read-out: CDO concentrations Optic nerve): 13700 ng/g | concentration at 1 h ([1]; Sprague-Dawley, optic nerve, rat, topical eye 100 mg/ml (eye drop of 10 μl) = 1 mg, 1 h, read-out: CDO concentrations Optic nerve): 2910 ng/g | concentration at 3 h ([1]; Sprague-Dawley, optic nerve, rat, topical eye 100 mg/ml (eye drop of 10 μl) = 1 mg, 3 h, read-out: CDO concentrations Optic nerve): 1920 ng/g | concentration at 6 h ([1]; Sprague-Dawley, optic nerve, rat, topical eye 100 mg/ml (eye drop of 10 μl) = 1 mg, 6 h, read-out: CDO concentrations Optic nerve): 2650 ng/g | concentration at 0.25 h ([1]; Sprague-Dawley, plasma, rat, topical eye 10 mg/ml (eye drop of 10 μl) = 0.1 mg, 0.25 h, read-out: CDO concentrations Plasma): 10 ng/g | concentration at 1 h ([1]; Sprague-Dawley, plasma, rat, topical eye 10 mg/ml (eye drop of 10 μl) = 0.1 mg, 1 h, read-out: CDO concentrations Plasma): 10 ng/g | concentration at 3 h ([1]; Sprague-Dawley, plasma, rat, topical eye 10 mg/ml (eye drop of 10 μl) = 0.1 mg, 3 h, read-out: CDO concentrations Plasma): 80 ng/g | concentration at 0.25 h ([1]; Sprague-Dawley, plasma, rat, topical eye 100 mg/ml (eye drop of 10 μl) = 1 mg, 0.25 h, read-out: CDO concentrations Plasma): 220 ng/g | concentration at 1 h ([1]; Sprague-Dawley, plasma, rat, topical eye 100 mg/ml (eye drop of 10 μl) = 1 mg, 1 h, read-out: CDO concentrations Plasma): 370 ng/g | concentration at 3 h ([1]; Sprague-Dawley, plasma, rat, topical eye 100 mg/ml (eye drop of 10 μl) = 1 mg, 3 h, read-out: CDO concentrations Plasma): 280 ng/g | concentration at 1 h ([1]; Sprague-Dawley, retina/choroid, rat, topical eye 100 mg/ml (eye drop of 10 μl) = 1 mg, 1 h, read-out: CDO concentrations Retina/Choroid): 1520 ng/g | concentration at 3 h ([1]; Sprague-Dawley, retina/choroid, rat, topical eye 100 mg/ml (eye drop of 10 μl) = 1 mg, 3 h, read-out: CDO concentrations Retina/Choroid): 1570 ng/g | CDO amounts in target tissues (optic nerve and retina choroids) 6 hours after topical ocular administration ([1]; rat, 6 hours after topical ocular administration): could be detected | CDO concentrations Optic nerve [1, 4]: — | CDO concentrations Retina [1, 4]: — | CDO concentrations Optic nerve [1, 5]: — | CDO concentrations Retina [1, 5]: — | CDO concentrations Retina ([1]; rat, oral 50 mg/Kg = 10 mg, 3 h): — | CDO concentrations Retina ([1]; rat, oral 50 mg/Kg = 10 mg, 6 h): — | amount of CDO orally administered showing equivalent levels in retina to 1 mg CDO instilled onto the eye surface ([1]; rat, single dose): 40 to 150 mg | CDO concentrations Retina ([1]; rat, topical eye 10 mg/ml (eye drop of 10 μl) = 0.1 mg, 1 h): — | CDO concentrations Optic nerve [1, 6]: — | CDO concentrations Retina [1, 6]: — | CDO concentrations Retina ([1]; rat, topical eye 10 mg/ml (eye drop of 10 μl) = 0.1 mg, 6 h): — | plasmatic levels after topical eye administration ([1]; rats, topical eye administration): low plasmatic levels | concentration at 0.25 h ([2]; 0.1 mg/eye, topical eye 28 days (3 administrations/day, 10 μl/eye) 10 mg/ml): 19.5 µg/g | concentration at 0.25 h ([2]; 1 mg/eye, topical eye 28 days (3 administrations/day, 10 μl/eye) 100 mg/ml): 218 µg/g | Retinal vascularity (fluorescence microscopy, Evans Blue) [3]: well preserved retinas, with well-defined vessels with no evidence of vascular damages
